Data from patent publication US5214046A, “Substituted aminoalkoxybenzene anti-fungicidal compositions and use” (Hoffmann-La Roche Inc., priority 1989, dated 1993).
Where a name gives a salt, the structure may show the parent alone. Read-outs that look alike come from different tables or passages of the source.

What was measured:
[1] = molecular target: 2,3-epoxysqualene-lanosterol cyclase (Candida albicans, UniProt Q04782); experiment: Inhibition of 2,3-epoxysqualene-lanosterol cyclase from Candida albicans (cell-free extract, 14C-squalene epoxide); assay type: biochemical
Sequence of 2,3-epoxysqualene-lanosterol cyclase (Q04782 whole entry): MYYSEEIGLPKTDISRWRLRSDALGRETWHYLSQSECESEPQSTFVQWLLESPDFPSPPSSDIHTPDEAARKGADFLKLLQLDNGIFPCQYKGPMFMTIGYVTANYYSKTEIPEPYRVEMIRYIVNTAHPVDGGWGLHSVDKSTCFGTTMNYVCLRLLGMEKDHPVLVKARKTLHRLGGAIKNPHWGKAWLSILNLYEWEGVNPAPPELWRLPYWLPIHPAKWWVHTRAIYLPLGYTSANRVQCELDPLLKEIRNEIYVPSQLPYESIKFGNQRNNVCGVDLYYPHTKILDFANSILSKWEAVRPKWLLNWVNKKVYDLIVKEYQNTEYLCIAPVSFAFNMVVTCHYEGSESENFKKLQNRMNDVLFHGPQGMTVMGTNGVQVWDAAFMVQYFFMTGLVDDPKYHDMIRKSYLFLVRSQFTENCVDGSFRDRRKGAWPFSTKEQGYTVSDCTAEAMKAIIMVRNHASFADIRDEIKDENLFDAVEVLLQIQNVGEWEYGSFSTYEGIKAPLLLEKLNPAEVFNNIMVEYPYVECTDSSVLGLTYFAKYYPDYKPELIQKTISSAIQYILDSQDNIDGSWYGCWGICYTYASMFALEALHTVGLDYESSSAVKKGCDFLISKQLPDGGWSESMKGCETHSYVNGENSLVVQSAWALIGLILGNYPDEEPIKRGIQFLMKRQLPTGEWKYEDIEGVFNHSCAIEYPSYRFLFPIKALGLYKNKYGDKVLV

[2] = Acute toxicity in the case of subcutaneous administration to mice; settings: mouse, in vivo, sc
Protocol: The IC50 values are determined graphically and are given in μg of test substance per ml. Table I contains IC50 values determined in the above test for representative members of the class of compound defined by formula I as well as data concerning the acute toxicity in the case of subcutaneous administration to mice (LD50 in mg/kg).

[3] = tested on: Candida albicans; experiment: Agar dilution method, MIC alone and in combination with sterol biosynthesis inhibitors, FIC; assay type: cell-based; settings: for MIC: Candida albicans, 48 h, alone, 37° C., 2 days
[4] = C. albicans cell-free extract, pH 6.9, 30°, 1 hour, read-out: IC50 (converted)

Structure (SMILES)	IC50 [1, 4] [µM]	IC50 [1] [µM]	also measured
CNCCCCCCOc1ccc(C(=O)c2ccccc2)cc1 [Compound 24, 4-[[6-(methylamino)hexyl]oxy]benzophenone]	0.963	–	–
CCN(CC)CCCCCCOc1ccc(C(=O)CCc2ccccc2)cc1 [Compound 7, 4'-[[6-(diethylamino)hexyl]oxy]-3-phenylpropiophenone]	0.708	–	–
C=CCN(C)CCCCCCOc1ccc(C(=O)Cc2ccccc2)cc1 [Compound 32, 4-[[6-(allylmethylamino)hexyl]oxy]-2-phenylacetophenone]	–	0.0958	–
CN(C)CCCCCCCCCCOc1ccc(C(=O)c2ccccc2)cc1 [Compound 21, 4-[[10-(dimethylamino)decyl]oxy]benzophenone]	5.24	–	–
CN(C)CCCCCCOc1ccc(C(=O)c2ccc(F)cc2)cc1 [Compound 12, 4-[[6-(dimethylamino)hexyl]oxy]-4'-fluorobenzophenone]	0.524	–	–
CN(C)CCCCCCOc1ccc(C(=O)c2ccc(Cl)cc2Cl)cc1 [Compound 27, 4-[[6-(dimethylamino)hexyl]oxy]-2',4'-dichlorobenzophenone]	0.659	–	–
C=CCN(C)CCCCCCOc1ccc(C(=O)c2ccccc2)cc1 [Compound 31, 4-[[6-(allylmethylamino)hexyl]oxy]benzophenone]	–	0.125	LD50 [2]: 1000 to 2000 mg/kg
CCN(CC)CCCCCCOc1ccc(C(=O)C#Cc2ccccc2)cc1 [Compound 14, 4'-[[6-(diethylamino)hexyl]oxy]-3-phenylpropiolophenone]	8.21	–	–
CN(C/C=C/C#CC(C)(C)C)Cc1cccc2ccccc12 [Terbinafin, reference compound]	–	–	MIC in combination ([3]; C. albicans B4, Compound 6 + Terbinafin in combination): 0.55 mg/L; MIC in combination ([3]; C. albicans B5, Compound 6 + Terbinafin in combination): 0.75 mg/L; MIC in combination ([3]; C. albicans H12, Compound 6 + Terbinafin in combination): 6.25 mg/L; MIC in combination ([3]; C. albicans H29, Compound 6 + Terbinafin in combination): 1.55 mg/L; MIC in combination ([3]; C. albicans H42, Compound 6 + Terbinafin in combination): 6.25 mg/L; MIC ([3]; C. albicans B4): 12.5 mg/L; MIC ([3]; C. albicans B5): 6.25 mg/L; MIC ([3]; C. albicans H12): 100 mg/L; MIC ([3]; C. albicans H29): 6.25 mg/L; MIC ([3]; C. albicans H42): 100 mg/L
CN(C)CCCCCCOc1ccc(C(=O)c2cc(Cl)cc(Cl)c2)cc1 [Compound 28, 4-[[6-(dimethylamino)hexyl]oxy]-3',5'-dichlorobenzophenone]	3.8	–	–
CN(C)CCCCCCCCCOc1ccc(C(=O)c2ccccc2)cc1 [Compound 20, 4-[[9-(dimethylamino)nonyl]oxy]benzophenone]	4.35	–	–
CN(C)CCCCCOc1ccc(C(=O)c2ccccc2)cc1 [Compound 2, 4-[(5-(dimethylamino)pentyl)oxy]benzophenone]	0.514	–	–
CN(C)CCCCOc1ccc(C(=O)c2ccccc2)cc1 [Compound 1, 4-[[4-(dimethylamino)butyl]oxy]benzophenone]	–	2.86	LD50 [2]: > 4000 mg/kg
C=CCN(C)CCCCCCOc1ccc(C(=O)c2ccccc2)cc1Cl [Compound 39, 4-[[6-(allylmethylamino)hexyl]oxy]-3-chlorobenzophenone]	–	0.0648	–
C=CCN(C)CCCCCCOc1ccc(C(=O)c2ccc([N+](=O)[O-])cc2)cc1 [Compound 38, 4-[[6-(allylmethylamino)hexyl]oxy]-4'-nitrobenzophenone]	–	0.101	–
CN(C)CCCCCCOc1cccc(C(=O)CCc2ccccc2)c1 [Compound 11]	2.83	–	–
C=CCN(C)CCCCCCOc1ccc(C(=O)c2ccc(Cl)cc2Cl)cc1 [Compound 36, 4-[[6-(allylmethylamino)hexyl]oxy]-2',4'-dichlorobenzophenone]	–	0.131	–
CN(C)C/C=C/COc1ccc(C(=O)c2ccccc2)cc1 [Compound 43, trans-4-[[4-(dimethylamino)-2-butenyl]oxy]benzophenone]	0.745	–	–
C=CCN(C)CCCCCCOc1ccc(C(=O)c2ccc(Cl)cc2Cl)cc1Cl [Compound 40, 4-[[6-(allylmethylamino)hexyl]oxy]-2',3,4'-trichlorobenzophenone]	–	0.0572	–
C=CCN(C)C/C=C/COc1ccc(C(=O)c2ccc(Cl)cc2Cl)cc1 [Compound 42, trans-4-[[4-(allylmethylamino)-2-butenyl]oxy]-2',4'-dichlorobenzophenone]	–	0.0179	–
CN(C)CCCCCCOc1ccc(C(=O)Cc2ccccc2)cc1 [Compound 6]	0.191	–	–
C=CCN(C)CCCCCCOc1ccc(C(=O)c2cccc(C)c2C)cc1 [Compound 35, 4-[[6-(allylmethylamino)hexyl]oxy]-2',3'-dimethylbenzophenone]	–	0.224	–
C=CCN(C)C/C=C/COc1ccc(C(=O)c2ccccc2)cc1 [Compound 41, trans-4-[[4-(allylmethylamino)-2-butenyl]oxy]benzophenone]	–	0.0622	–

Structure (SMILES)	IC50 [1, 4] [µM]	IC50 [1] [µM]	also measured
CN(C)CCCCCCOc1cccc(C(=O)c2ccccc2)c1 [Compound 13, 3-[(6-(dimethylamino)hexyl)oxy]benzophenone]	6.15	–	–
CCCN(CCC)CCCCCCOc1ccc(C(=O)c2ccccc2)cc1 [Compound 16, 4-[[6-(dipropylamino)hexyl]oxy]benzophenone]	2.41	–	–
Cc1cccc(C(=O)c2ccc(OCCCCCCN(C)C)cc2)c1C [Compound 26, 4-[[6-(dimethylamino)hexyl]oxy]-2',3'-dimethylbenzophenone]	1.19	–	–
CN(C)CCCCCCCCOc1ccc(C(=O)c2ccccc2)cc1 [Compound 19]	1.19	–	–
CN(C)CCCCCCOc1ccc(C(=O)CCc2ccccc2)cc1 [Compound 8, 4'-[[6-(dimethylamino)hexyl]oxy]-3-phenylpropiophenone]	0.99	–	–
CC(=O)N1CCN(c2ccc(OCC3COC(Cn4ccnc4)(c4ccc(Cl)cc4Cl)O3)cc2)CC1 (stereo not drawn) [Ketoconazole, reference compound]	–	–	MIC in combination ([3]; C. albicans B4, Compound 6 + Ketoconazole in combination): 0.155 mg/L; MIC in combination ([3]; C. albicans B5, Compound 6 + Ketoconazole in combination): 0.31 mg/L; MIC in combination ([3]; C. albicans H12, Compound 6 + Ketoconazole in combination): 0.155 mg/L; MIC in combination ([3]; C. albicans H29, Compound 6 + Ketoconazole in combination): 0.03 mg/L; MIC in combination ([3]; C. albicans H42, Compound 6 + Ketoconazole in combination): 0.155 mg/L; MIC ([3]; C. albicans B4): 5 mg/L; MIC ([3]; C. albicans B5): 5 mg/L; MIC ([3]; C. albicans H12): 5 mg/L; MIC ([3]; C. albicans H29): 0.25 mg/L; MIC ([3]; C. albicans H42): 10 mg/L
CN(C)CCCCCCOc1ccc(CC(=O)c2ccccc2)cc1 [Compound 23, 2-[4-[[6-(dimethylamino)hexyl]oxy]phenyl]acetophenone]	0.56	–	–
C=CCN(C)CCCCCCOc1ccc(C(=O)c2ccccc2)cc1C [Compound 34, 4-[[6-(allylmethylamino)hexyl]oxy]-3-methylbenzophenone]	–	0.0875	–
C=CCN(C)CCCCCCOc1ccc(C(=O)c2cc(Cl)cc(Cl)c2)cc1 [Compound 37, 4-[[6-(allylmethylamino)hexyl]oxy]-3',5'-dichlorobenzophenone]	–	0.809	–
CN(C)CCCCCCCOc1ccc(C(=O)c2ccccc2)cc1 [Compound 18, 4-[[7-(dimethylamino)heptyl]oxy]benzophenone]	0.353	–	–
CN(C)CCCCCCOc1ccc(C(=O)c2ccccc2)cc1 [Compound 3, 4-[(6-dimethylamino)hexyl)oxy]benzophenone hydrochloride]	0.461	–	–
Cc1cc(C(=O)c2ccccc2)ccc1OCCCCCCN(C)C [Compound 25, 4-[[6-(dimethylamino)hexyl]oxy]-3-methylbenzophenone]	0.56	–	–
O=C(c1ccccc1)c1ccc(OCCCCCCN2CCC2)cc1 [Compound 17, 4-[(6-(azetidinyl)hexyl)oxy]benzophenone]	–	1.78	–
CCN(CC)CCCCCCOc1ccc(C(=O)c2ccccc2)cc1 [Compound 9, 4'-[[6-(diethylamino)hexyl]oxy]benzophenone]	1.02	–	–
CN(C)CCCCCCOc1ccc(C(=O)c2ccc(Cl)cc2Cl)cc1Cl [Compound 30, 4-[[6-(dimethylamino)hexyl]oxy]-2',3,4'-trichlorobenzophenone]	0.233	–	–
CN(C)CCCCCCOc1ccc(C(=O)/C=C/c2ccccc2)cc1 [Compound 5, (E)-4'-[[6-(dimethylamino)hexyl]oxy]-3-phenylacrylophenone]	1.71	–	–
O=C(c1ccccc1)c1ccc(OCCCCCCN2CCCC2)cc1 [Compound 22, 4-[(6-(pyrrolidino)hexyl)oxy]benzophenone]	0.967	–	–
CN(C)CCCCCCOc1cccc(C(=O)/C=C/c2ccccc2)c1 [Compound 10, (E)-3'-[[6-(dimethylamino)hexyl]oxy]-3-phenylacrylophenone]	6.54	–	–
CN(C)CCCCCCOc1ccc(C(=O)c2c(F)c(F)c(F)c(F)c2F)cc1 [Compound 15, 4'-[[6-(dimethylamino)hexyl]oxy]-2,3,4,5,6-pentafluorobenzophenone]	2.14	–	–
CN(C)CCCCCCOc1ccc(C(=O)c2ccc([N+](=O)[O-])cc2)cc1 [Compound 29, 4-[[6-(dimethylamino)hexyl]oxy]-4'-nitrobenzophenone]	0.756	–	–
CCN(CC)CCCCCCOc1cccc(C(=O)CCc2ccccc2)c1 [Compound 4, 3'-[[6-(diethylamino)hexyl]oxy]-3-phenypropiophenone]	1.57	–	–
CN(C)C/C=C/COc1ccc(C(=O)c2ccc(Cl)cc2Cl)cc1 [Compound 44, trans-4-[[4-(dimethylamino)-2-butenyl]oxy]-2',4'-dichlorobenzophenone]	0.178	–	–
C=CCN(C)CCCCCCOc1ccc(C(=O)c2ccc(F)cc2)cc1 [Compound 33, 4-[[6-(allylmethylamino)hexyl]oxy]-4'-fluorobenzophenone]	–	0.0839	–
